Test results taken from PubChem BioAssay (NCI).
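Briefly, cells in 96-well plates were exposed to five compound concentrations for 48 h, and endpoints were estimated by linear interpolation. GI50 = concentration required for 50% inhibition of growth. TGI marks complete inhibition of growth.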

Tests used:
Test in all cases: NCI tumour cell line growth inhibition, 48 h
U251 CNS = system: U251 CNS
OVCAR-3 ovarian = system: OVCAR-3 ovarian
CCRF-CEM leukemia = system: CCRF-CEM leukemia
HCT-116 colon = system: HCT-116 colon
RXF 393 renal = system: RXF 393 renal
DU-145 prostate = system: DU-145 prostate
MDA-MB-435 = system: MDA-MB-435
K-562 leukemia = system: K-562 leukemia
SK-OV-3 ovarian = system: SK-OV-3 ovarian
OVCAR-5 ovarian = system: OVCAR-5 ovarian
NCI/ADR-RES ovarian = system: NCI/ADR-RES ovarian
UACC-257 melanoma = system: UACC-257 melanoma
NCI-H23 lung = system: NCI-H23 lung
MDA-MB-231 breast = system: MDA-MB-231 breast
UACC-62 melanoma = system: UACC-62 melanoma
COLO 205 colon = system: COLO 205 colon
A549 NSCLC = system: A549 NSCLC
HS 578T breast = system: HS 578T breast
BT-549 breast = system: BT-549 breast
SF-268 CNS = system: SF-268 CNS
SR leukemia = system: SR leukemia
NCI-H460 lung = system: NCI-H460 lung
MOLT-4 leukemia = system: MOLT-4 leukemia
SN12C renal = system: SN12C renal
RPMI-8226 leukemia = system: RPMI-8226 leukemia
SK-MEL-2 melanoma = system: SK-MEL-2 melanoma
EKVX NSCLC = system: EKVX NSCLC
NCI-H522 lung = system: NCI-H522 lung
SK-MEL-5 melanoma = system: SK-MEL-5 melanoma
HCT-15 colon = system: HCT-15 colon
T-47D breast = system: T-47D breast
786-0 renal = system: 786-0 renal
MCF7 breast = system: MCF7 breast
A498 renal = system: A498 renal
NCI-H226 lung = system: NCI-H226 lung
IGROV1 ovarian = system: IGROV1 ovarian
KM12 colon = system: KM12 colon
HCC-2998 colon = system: HCC-2998 colon
HOP-92 NSCLC = system: HOP-92 NSCLC
UO-31 renal = system: UO-31 renal
SF-539 CNS = system: SF-539 CNS
LOX IMVI melanoma = system: LOX IMVI melanoma
ACHN renal = system: ACHN renal
SF-295 CNS = system: SF-295 CNS
SK-MEL-28 melanoma = system: SK-MEL-28 melanoma
HL-60(TB) leukemia = system: HL-60(TB) leukemia
OVCAR-8 ovarian = system: OVCAR-8 ovarian
MALME-3M melanoma = system: MALME-3M melanoma
PC-3 prostate = system: PC-3 prostate
OVCAR-4 ovarian = system: OVCAR-4 ovarian
M14 melanoma = system: M14 melanoma
SNB-75 CNS = system: SNB-75 CNS
SNB-19 CNS = system: SNB-19 CNS
SW-620 colon = system: SW-620 colon
TK-10 renal = system: TK-10 renal

SMILES: OCCNc1nc(NCCO)nc(Nc2ccc(C3=NN(c4cc(Cl)cc(Cl)c4)C(c4ccc(Cl)cc4)C3)cc2)n1 (stereo not given)
- GI50 (U251 CNS): 1.51 µM
- TGI (U251 CNS): 3.04 µM
- GI50 (OVCAR-3 ovarian): 1.75 µM
- TGI (OVCAR-3 ovarian): 3.19 µM
- GI50 (CCRF-CEM leukemia): 2.11 µM
- TGI (CCRF-CEM leukemia): 5.46 µM
- GI50 (HCT-116 colon): 1.59 µM
- TGI (HCT-116 colon): 3.05 µM
- GI50 (RXF 393 renal): 1.44 µM
- TGI (RXF 393 renal): 2.91 µM
- GI50 (DU-145 prostate): 1.67 µM
- TGI (DU-145 prostate): 3.22 µM
- GI50 (MDA-MB-435): 1.65 µM
- TGI (MDA-MB-435): 3.11 µM
- GI50 (K-562 leukemia): 1.73 µM
- TGI (K-562 leukemia): 3.74 µM
- GI50 (SK-OV-3 ovarian): 2.31 µM
- TGI (SK-OV-3 ovarian): 5.15 µM
- GI50 (OVCAR-5 ovarian): 1.96 µM
- TGI (OVCAR-5 ovarian): 4.43 µM
- GI50 (NCI/ADR-RES ovarian): 2.6 µM
- TGI (NCI/ADR-RES ovarian): 7.08 µM
- GI50 (UACC-257 melanoma): 1.95 µM
- TGI (UACC-257 melanoma): 3.78 µM
- GI50 (NCI-H23 lung): 1.72 µM
- TGI (NCI-H23 lung): 3.4 µM
- GI50 (MDA-MB-231 breast): 1.71 µM
- TGI (MDA-MB-231 breast): 3.42 µM
- GI50 (UACC-62 melanoma): 1.72 µM
- TGI (UACC-62 melanoma): 3.37 µM
- GI50 (COLO 205 colon): 1.91 µM
- TGI (COLO 205 colon): 3.84 µM
- GI50 (A549 NSCLC): 1.96 µM
- TGI (A549 NSCLC): 4.45 µM
- GI50 (HS 578T breast): 2.22 µM
- TGI (HS 578T breast): 6.98 µM
- GI50 (BT-549 breast): 1.77 µM
- TGI (BT-549 breast): 3.8 µM
- GI50 (SF-268 CNS): 1.86 µM
- TGI (SF-268 CNS): 3.79 µM
- GI50 (SR leukemia): 1.45 µM
- TGI (SR leukemia): 3.31 µM
- GI50 (NCI-H460 lung): 1.89 µM
- TGI (NCI-H460 lung): 3.66 µM
- GI50 (MOLT-4 leukemia): 1.52 µM
- TGI (MOLT-4 leukemia): 4.02 µM
- GI50 (SN12C renal): 1.82 µM
- TGI (SN12C renal): 3.47 µM
- GI50 (RPMI-8226 leukemia): 1.91 µM
- TGI (RPMI-8226 leukemia): 4.85 µM
- GI50 (SK-MEL-2 melanoma): 2.13 µM
- TGI (SK-MEL-2 melanoma): 4.57 µM
- GI50 (EKVX NSCLC): 2.04 µM
- TGI (EKVX NSCLC): 4.72 µM
- GI50 (NCI-H522 lung): 2.03 µM
- TGI (NCI-H522 lung): 4.66 µM
- GI50 (SK-MEL-5 melanoma): 1.81 µM
- TGI (SK-MEL-5 melanoma): 3.37 µM
- GI50 (HCT-15 colon): 1.48 µM
- TGI (HCT-15 colon): 2.8 µM
- GI50 (T-47D breast): 1.5 µM
- TGI (T-47D breast): 3.88 µM
- GI50 (786-0 renal): 1.64 µM
- TGI (786-0 renal): 3.28 µM
- GI50 (MCF7 breast): 1.42 µM
- TGI (MCF7 breast): 3.31 µM
- GI50 (A498 renal): 1.73 µM
- TGI (A498 renal): 3.57 µM
- GI50 (NCI-H226 lung): 2.45 µM
- TGI (NCI-H226 lung): 5.48 µM
- GI50 (IGROV1 ovarian): 2.48 µM
- TGI (IGROV1 ovarian): 5.68 µM
- GI50 (KM12 colon): 1.85 µM
- TGI (KM12 colon): 4 µM
- GI50 (HCC-2998 colon): 1.96 µM
- TGI (HCC-2998 colon): 3.52 µM
- GI50 (HOP-92 NSCLC): 2.04 µM
- TGI (HOP-92 NSCLC): 4.42 µM
- GI50 (UO-31 renal): 1.63 µM
- TGI (UO-31 renal): 3.16 µM
- GI50 (SF-539 CNS): 1.35 µM
- TGI (SF-539 CNS): 2.63 µM
- GI50 (LOX IMVI melanoma): 1.65 µM
- TGI (LOX IMVI melanoma): 3.01 µM
- GI50 (ACHN renal): 1.55 µM
- TGI (ACHN renal): 3.17 µM
- GI50 (SF-295 CNS): 1.47 µM
- TGI (SF-295 CNS): 2.85 µM
- GI50 (SK-MEL-28 melanoma): 1.61 µM
- TGI (SK-MEL-28 melanoma): 3.02 µM
- GI50 (HL-60(TB) leukemia): 1.86 µM
- TGI (HL-60(TB) leukemia): 3.85 µM
- GI50 (OVCAR-8 ovarian): 2.08 µM
- TGI (OVCAR-8 ovarian): 4.75 µM
- GI50 (MALME-3M melanoma): 2.1 µM
- TGI (MALME-3M melanoma): 3.92 µM
- GI50 (PC-3 prostate): 1.62 µM
- TGI (PC-3 prostate): 4.32 µM
- GI50 (OVCAR-4 ovarian): 2 µM
- TGI (OVCAR-4 ovarian): 5.02 µM
- GI50 (M14 melanoma): 1.69 µM
- TGI (M14 melanoma): 3.23 µM
- GI50 (SNB-75 CNS): 1.51 µM
- TGI (SNB-75 CNS): 3.06 µM
- GI50 (SNB-19 CNS): 2.07 µM
- TGI (SNB-19 CNS): 4.12 µM
- GI50 (SW-620 colon): 2.03 µM
- TGI (SW-620 colon): 4.52 µM
- GI50 (TK-10 renal): 1.89 µM
- TGI (TK-10 renal): 3.72 µM
